Measured values from patent US20220289746A1, “PYRROLIDINE DERIVATIVES” (Hoffmann-La Roche Inc., priority 2019, published 2022).

Legend:
[1] = molecular target: T1, human M4 receptor (Homo sapiens, UniProt P08173); experiment: cAMP assay for M4 positive allosteric modulators (M4 PAM cAMP assay); type: cell-based; parameters: expressed in transfected cells; host or cells: CHO-K1; settings: Table 1; CHO-K1 cells expressing human M4; forskolin 7.5 μM + acetylcholine EC20 (0.2 nM)
T1 sequence (P08173 1-479): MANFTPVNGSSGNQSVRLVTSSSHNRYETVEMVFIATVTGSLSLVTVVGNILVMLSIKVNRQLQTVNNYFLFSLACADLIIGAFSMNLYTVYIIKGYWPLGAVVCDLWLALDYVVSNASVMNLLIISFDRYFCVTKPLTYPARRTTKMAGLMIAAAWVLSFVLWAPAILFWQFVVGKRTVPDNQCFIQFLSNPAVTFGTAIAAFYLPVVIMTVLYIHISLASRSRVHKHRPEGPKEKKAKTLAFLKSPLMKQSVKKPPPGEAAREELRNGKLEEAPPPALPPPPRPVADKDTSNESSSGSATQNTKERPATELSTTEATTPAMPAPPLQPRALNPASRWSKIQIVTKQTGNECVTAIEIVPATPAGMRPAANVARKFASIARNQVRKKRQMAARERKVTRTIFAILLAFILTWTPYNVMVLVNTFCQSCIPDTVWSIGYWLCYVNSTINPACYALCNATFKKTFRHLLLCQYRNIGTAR
Description: The potency of M4 PAMs was determined using a cell-based cyclic adenosine monophosphate assay. The assay was performed with CHO-Kl cells stably expressing untagged human M4 receptor and cAMP was quantified using the Nano-TRF Detection Assay kit (Roche, Cat. No. 05214386) as described in the kit instructions. The cells were grown in Ham's F-12 Nutrient mix supplemented with 10% FBS and 200 μg/ml geneticin until they reached 80% confluency. The cells were washed with PBS, detached with accutase and resuspended in assay buffer consisting of HBSS and 0.1% BSA. They were then seeded in black 384-well plates (Corning, Cat. No. 3764) at a density of 20,000 cells/20 μl per well until the addition of compounds.
Test compounds were serially diluted 1:2 in 100% DMSO and spotted in 384-well plates at 0.5 μl/well. The compounds were then diluted in water containing IBMX (Sigma, Cat. No. 17018) and a sample (5 μl) was added to the cells for 15 minutes at 37° C./5% CO2. After this incubation the cells were stimulated with a combination of forskolin (7.5 μM) and acetylcholine EC20 (0.2 nM) in assay buffer for 30 minutes at 37° C./5% CO2. The assay was stopped by adding cAMP detection mix (15 μl/well, containing detergents for cell lysis) for one hour at RT.
The test plates were read using a SpectraMax i3x reader (Molecular Devices). The exported raw data was used to calculate the FRET signal based on the P-factor as per cAMP kit instructions. The data was normalized to the activity of acetylcholine plus forskolin, with 2 nM of acetylcholine plus 7.5 μM forskolin defined as 100% activity. Dose response curves were fitted to the percent activity data of the compounds using a sigmoidal dose response model (XLfit, IDBS) and the data were reported as EC50 and percent efficacy.

[2] = molecular target: T1, human M4 receptor; experiment: Calcium flux assay using fluorescent imaging (M4 PAM FLIPR assay); type: cell-based; parameters: expressed in transfected cells; host or cells: CHO (monoclonal line, clone 2); settings: Table 1; CHO cells expressing human M4+Gqi5; acetylcholine EC20
Description: CHO cells were transfected with expression plasmid encoding the human M4 receptor and a Gqi5 construct to redirect Gi signaling to calcium. Stable cells were cloned by limiting dilution to yield a monoclonal cell line expressing human M4+Gqi5 (clone 2). The stable cells were grown in DMEM containing 10% FBS, 200 ug/ml Geneticin and 800 ug/ml Hygromycin at 37° C. in a 10% CO2 incubator at 95% humidity.
Calcium Flux Assay Using Fluorescent Imaging (“M4 PAM FLIPR” Assay)
On the afternoon before the assay, cells were plated at a density of 50,000 cells/well into black 96 well plates with clear bottoms to yield a confluent monolayer the next day. Hanks balanced salt solution, without phenol red, containing 20 mM HEPES (pH 7.3) and 2.5 mM probenecid (assay buffer) was prepared fresh for each experiment. Compound dilutions were made using a Beckman Biomek 2000 laboratory automation workstation, in assay buffer. The dye-loading buffer consisted of a final concentration of 2 μM Fluo-4-AM (dissolved in DMSO and pluronic acid) and 65 μg/ml amidoblack in assay buffer. The existing culture media was removed from the wells and 100 μl of the dye-loading buffer was added to each well and incubated for approximately 90 min at 37° C. in a 5% CO2 incubator at 95% humidity.
Calcium flux in the dye-loaded cells was measured with the fluorescence reader Hamamatsu FDSS 7000. To test compounds as agonists, compound addition (25 μl) was made 10 s into the fluorescent measurements and fluorescent response was recorded for 3 minutes. The fluorescence data was expressed as percentage of the fluorescence obtained by an EC100 concentration (3 μM) of the endogenous full agonist acetylcholine. Each test compound concentration-response curve was constructed using a four parameter logistic equation in Microsoft Excel XLFit as follows:
Y=Minimum+((Maximum−Minimum)/(1+10^(LogEC50−X)nH)).
The concentration of agonist that produced a half-maximal response is represented by the EC50 value. Maximum and minimum are the maximum and minimum fluorescence signal in % respectively. nH is the Hill slope.
To measure positive allosteric modulator activity 25 μl of an EC20 concentration of the endogenous agonist acetylcholine is added to the cells already pre-incubated with the test compound for 15 minutes.
The M4 PAM dose response is constructed using the agonist dose-response equation above. The concentration of PAM that produced a half-maximal response is represented by the EC50 value and the maximum signal measured is the PAM efficacy expressed in % of the EC100 (3 μM) acetylcholine response. • cAMP Assay for M4 Positive Allosteric Modulators (“M4 PAM cAMP” Assay)

COc1ncc(N2CC[C@@H](C(=O)N3Cc4nc(C)c(Cl)c(C)c4C3)C2)cn1 [Example 33, (3-chloro-2,4-dimethyl-5,7-dihydropyrrolo[3,4-b]pyridin-6-yl)-[(3R)-1-(2-methoxypyrimidin-5-yl)pyrrolidin-3-yl]methanone]
EC50 [1]: 242 nM | EC50 [2]: 2370 nM

Cc1nc2c(c(C)c1Cl)CN(C(=O)[C@@H]1CCN(c3cnc(C4COC4)nc3)C1)C2 [Example 34, (3-chloro-2,4-dimethyl-5,7-dihydropyrrolo[3,4-b]pyridin-6-yl)-[(3R)-1-[2-(oxetan-3-yl)pyrimidin-5-yl]pyrrolidin-3-yl]methanone]
EC50 [1]: 603 nM | EC50 [2]: 575 nM

CNc1ncc(N2CC[C@@H](C(=O)N3Cc4nc(C)c(Cl)c(C)c4C3)C2)cn1 [Example 35, (3-chloro-2,4-dimethyl-5,7-dihydropyrrolo[3,4-b]pyridin-6-yl)-[(3R)-1-[2-(methylamino)pyrimidin-5-yl]pyrrolidin-3-yl]methanone]
EC50 [1]: 817 nM | EC50 [2]: 1060 nM

Cc1nc2c(c(C)c1Cl)CN(C(=O)[C@@H]1CCN(c3cnc(N(C)C)nc3)C1)C2 [Example 36, (3-chloro-2,4-dimethyl-5,7-dihydropyrrolo[3,4-b]pyridin-6-yl)-[(3R)-1-[2-(dimethylamino)pyrimidin-5-yl]pyrrolidin-3-yl]methanone]
EC50 [1]: 1720 nM | EC50 [2]: 1800 nM

Cc1ncncc1N1CC[C@@H](C(=O)N2Cc3nc(C)c(Cl)c(C)c3C2)C1 [Example 37, (3-chloro-2,4-dimethyl-5,7-dihydropyrrolo[3,4-b]pyridin-6-yl)-[(3R)-1-(4-methylpyrimidin-5-yl)pyrrolidin-3-yl]methanone]
EC50 [1]: 405 nM | EC50 [2]: 394 nM

Cc1nc2c(c(C)c1Cl)CN(C(=O)[C@@H]1CCN(c3ccnnc3)C1)C2 [Example 38, (3-chloro-2,4-dimethyl-5,7-dihydropyrrolo[3,4-b]pyridin-6-yl)-[(3R)-1-pyridazin-4-ylpyrrolidin-3-yl]methanone]
EC50 [1]: 332 nM | EC50 [2]: 274 nM

Cc1nc2c(c(C)c1Cl)CN(C(=O)[C@@H]1CCN(c3cccnn3)C1)C2 [Example 39, (3-chloro-2,4-dimethyl-5,7-dihydropyrrolo[3,4-b]pyridin-6-yl)-[(3R)-1-pyridazin-3-ylpyrrolidin-3-yl]methanone]
EC50 [1]: 2200 nM | EC50 [2]: 2520 nM

Cc1ccc(N2CC[C@@H](C(=O)N3Cc4nc(C)c(Cl)c(C)c4C3)C2)nn1 [Example 40, (3-chloro-2,4-dimethyl-5,7-dihydropyrrolo[3,4-b]pyridin-6-yl)-[(3R)-1-(6-methylpyridazin-3-yl)pyrrolidin-3-yl]methanone]
EC50 [1]: 1990 nM | EC50 [2]: 1290 nM

Cc1nc2c(c(C)c1Cl)CN(C(=O)[C@@H]1CCN(c3ccc(C(F)(F)F)nn3)C1)C2 [Example 41, (3-chloro-2,4-dimethyl-5,7-dihydropyrrolo[3,4-b]pyridin-6-yl)-[(3R)-1-[6-(trifluoromethyl)pyridazin-3-yl]pyrrolidin-3-yl]methanone]
EC50 [1]: 5120 nM | EC50 [2]: 2010 nM

COc1cncc(N2CC[C@@H](C(=O)N3Cc4nc(C)c(Cl)c(C)c4C3)C2)n1 [Example 42, (3-chloro-2,4-dimethyl-5,7-dihydropyrrolo[3,4-b]pyridin-6-yl)-[(3R)-1-(6-methoxypyrazin-2-yl)pyrrolidin-3-yl]methanone]
EC50 [1]: 2080 nM | EC50 [2]: 577 nM

Cc1nc2c(c(C)c1Cl)CN(C(=O)[C@@H]1CCN(c3cncc(C4CC4)n3)C1)C2 [Example 43, (3-chloro-2,4-dimethyl-5,7-dihydropyrrolo[3,4-b]pyridin-6-yl)-[(3R)-1-(6-cyclopropylpyrazin-2-yl)pyrrolidin-3-yl]methanone]
EC50 [1]: 7290 nM | EC50 [2]: 1210 nM

Cc1nc2c(c(C)c1Cl)CN(C(=O)[C@@H]1CCN(c3cnc(C#N)cn3)C1)C2 [Example 44, 5-[(3R)-3-(3-chloro-2,4-dimethyl-5,7-dihydropyrrolo[3,4-b]pyridine-6-carbonyl)pyrrolidin-1-yl]pyrazine-2-carbonitrile]
EC50 [1]: 1280 nM | EC50 [2]: 1110 nM

COc1cnc(N2CC[C@@H](C(=O)N3Cc4nc(C)c(Cl)c(C)c4C3)C2)cn1 [Example 45, (3-chloro-2,4-dimethyl-5,7-dihydropyrrolo[3,4-b]pyridin-6-yl)-[(3R)-1-(5-methoxypyrazin-2-yl)pyrrolidin-3-yl]methanone]
EC50 [1]: 1370 nM | EC50 [2]: 804 nM

Cc1cnc(N2CC[C@@H](C(=O)N3Cc4nc(C)c(Cl)c(C)c4C3)C2)cn1 [Example 46, (3-chloro-2,4-dimethyl-5,7-dihydropyrrolo[3,4-b]pyridin-6-yl)-[(3R)-1-(5-methylpyrazin-2-yl)pyrrolidin-3-yl]methanone]
EC50 [1]: 814 nM | EC50 [2]: 611 nM

Cc1nc2c(c(C)c1Cl)CN(C(=O)[C@@H]1CCN(c3cnc(C(F)(F)F)cn3)C1)C2 [Example 47, (3-chloro-2,4-dimethyl-5,7-dihydropyrrolo[3,4-b]pyridin-6-yl)-[(3R)-1-[5-(trifluoromethyl)pyrazin-2-yl]pyrrolidin-3-yl]methanone]
EC50 [1]: 1820 nM | EC50 [2]: 906 nM

COc1ccnc(N2CC[C@@H](C(=O)N3Cc4nc(C)c(Cl)c(C)c4C3)C2)n1 [Example 48, (3-chloro-2,4-dimethyl-5,7-dihydropyrrolo[3,4-b]pyridin-6-yl)-[(3R)-1-(4-methoxypyrimidin-2-yl)pyrrolidin-3-yl]methanone]
EC50 [1]: 8130 nM | EC50 [2]: 2200 nM

Cc1ccnc(N2CC[C@@H](C(=O)N3Cc4nc(C)c(Cl)c(C)c4C3)C2)n1 [Example 49, (3-chloro-2,4-dimethyl-5,7-dihydropyrrolo[3,4-b]pyridin-6-yl)-[(3R)-1-(4-methylpyrimidin-2-yl)pyrrolidin-3-yl]methanone]
EC50 [1]: 3350 nM | EC50 [2]: 1670 nM

Cc1nc2c(c(C)c1Cl)CN(C(=O)[C@@H]1CCN(c3nccc(C(F)(F)F)n3)C1)C2 [Example 50, (3-chloro-2,4-dimethyl-5,7-dihydropyrrolo[3,4-b]pyridin-6-yl)-[(3R)-1-[4-(trifluoromethyl)pyrimidin-2-yl]pyrrolidin-3-yl]methanone]
EC50 [1]: 4380 nM | EC50 [2]: 1820 nM
